For one assay, the target named is T1, DGKα (Homo sapiens, UniProt P23743).
T1 construct: His; purchased Signal Chem D21-10BH
The experiment in a line: In vitro DGKα inhibition assay (ADP-Glo). It counts as biochemical. Conditions: His-tagged human recombinant DGKα 0.1 nM, 50 μM ATP, 20 μM DLG, 90 minute incubation. In a few lines:
(§1)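 His-tagged human DGKα (0.1 nM, 50 μM ATP) or DGKζ (0.4 nM, 30 μM ATP), each with 20 μM DLG lipid substrate, in Tris pH 7.5 buffer with Mg2+, Ca2+, CHAPS.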
(ADP-Glo turns the ADP formed in a reaction into a luminescent signal.)

A further assay has as its target T2, DGKζ (Homo sapiens, UniProt Q13574).
T2 construct: His; purchased Signal Chem D30-10H
Briefly: In vitro DGKζ inhibition assay (ADP-Glo). It counts as biochemical. Conditions: His-tagged human recombinant DGKζ 0.4 nM, 30 μM ATP, 20 μM DLG, 90 minute incubation. In a few lines: as §1

Experimental findings from patent US20250179083A1, “TRICYCLIC TRIAZOLO COMPOUNDS AS DGK INHIBITORS” (Incyte Corporation, priority 2023, published 2025) are described below.

T2 sequence (Q13574 whole entry): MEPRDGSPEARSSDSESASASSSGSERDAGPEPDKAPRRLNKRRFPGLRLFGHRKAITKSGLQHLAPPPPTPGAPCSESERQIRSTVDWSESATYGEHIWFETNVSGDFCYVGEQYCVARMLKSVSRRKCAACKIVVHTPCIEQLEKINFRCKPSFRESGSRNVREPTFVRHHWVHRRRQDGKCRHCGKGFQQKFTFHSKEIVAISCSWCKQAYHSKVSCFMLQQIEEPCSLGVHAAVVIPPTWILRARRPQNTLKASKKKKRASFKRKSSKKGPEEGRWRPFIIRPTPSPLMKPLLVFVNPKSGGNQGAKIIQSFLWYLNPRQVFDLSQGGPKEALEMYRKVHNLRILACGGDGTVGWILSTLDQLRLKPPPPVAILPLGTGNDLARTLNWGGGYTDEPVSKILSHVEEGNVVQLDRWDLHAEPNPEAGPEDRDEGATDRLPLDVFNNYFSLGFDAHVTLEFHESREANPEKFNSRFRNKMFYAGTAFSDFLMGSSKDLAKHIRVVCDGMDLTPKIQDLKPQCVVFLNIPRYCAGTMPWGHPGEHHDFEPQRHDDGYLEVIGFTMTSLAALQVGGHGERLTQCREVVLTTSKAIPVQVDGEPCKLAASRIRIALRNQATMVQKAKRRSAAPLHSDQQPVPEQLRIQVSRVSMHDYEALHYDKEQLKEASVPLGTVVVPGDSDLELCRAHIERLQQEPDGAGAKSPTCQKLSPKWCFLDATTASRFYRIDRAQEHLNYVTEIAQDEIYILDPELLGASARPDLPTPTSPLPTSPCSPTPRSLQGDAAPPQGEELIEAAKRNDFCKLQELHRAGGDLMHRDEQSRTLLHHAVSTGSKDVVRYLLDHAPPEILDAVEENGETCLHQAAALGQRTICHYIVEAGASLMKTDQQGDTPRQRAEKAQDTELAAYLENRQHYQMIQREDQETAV
T1 sequence (P23743 whole entry): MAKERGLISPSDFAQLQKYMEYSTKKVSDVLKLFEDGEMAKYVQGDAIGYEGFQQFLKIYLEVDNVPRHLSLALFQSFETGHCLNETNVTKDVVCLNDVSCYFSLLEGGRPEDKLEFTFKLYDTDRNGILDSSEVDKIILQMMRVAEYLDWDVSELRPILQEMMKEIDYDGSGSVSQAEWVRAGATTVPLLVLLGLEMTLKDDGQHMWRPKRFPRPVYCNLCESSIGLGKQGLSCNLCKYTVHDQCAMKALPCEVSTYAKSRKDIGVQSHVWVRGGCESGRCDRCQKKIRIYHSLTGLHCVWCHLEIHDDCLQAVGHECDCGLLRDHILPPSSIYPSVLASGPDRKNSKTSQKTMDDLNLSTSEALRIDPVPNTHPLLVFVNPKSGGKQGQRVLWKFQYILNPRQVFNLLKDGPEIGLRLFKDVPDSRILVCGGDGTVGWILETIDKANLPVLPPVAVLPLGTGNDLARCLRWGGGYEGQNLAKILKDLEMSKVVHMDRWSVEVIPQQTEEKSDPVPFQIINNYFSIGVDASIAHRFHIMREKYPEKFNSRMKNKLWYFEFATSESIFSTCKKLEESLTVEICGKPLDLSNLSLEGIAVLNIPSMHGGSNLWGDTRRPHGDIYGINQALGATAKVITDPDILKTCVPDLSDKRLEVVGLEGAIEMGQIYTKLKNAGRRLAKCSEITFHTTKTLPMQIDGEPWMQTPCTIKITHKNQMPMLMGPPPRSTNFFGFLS

As for `Cc1nc2c(N3C[C@@H](C)N(C(c4cc(F)c(Cl)cc4F)C4CC(F)(F)C4)C[C@@H]3C)nc3nncn3c2n1C[C@@H]1CCCO1` (stereo partly drawn) [Example 79, 4-((2S,5R)-4-((4-Chloro-2,5-difluorophenyl)(3,3-difluorocyclobutyl)methyl)-2,5-dimethylpiperazin-1-yl)-2-methyl-1-(((S)-tetrahydrofuran-2-yl)methyl)-1H-[1,2,4]triazolo[3,4-b]purine], the IC50 on DGKα and at DGKζ was below 20 nM each time.

Take `Cc1nc2c(N3C[C@@H](C)N(C(c4ccc(Cl)c(F)c4F)C4CC(F)(F)C4)C[C@@H]3C)nc3nncn3c2n1C[C@@H]1CCCO1` (stereo partly drawn) [Example 80, 4-((2S,5R)-4-((4-Chloro-2,3-difluorophenyl)(3,3-difluorocyclobutyl)methyl)-2,5-dimethylpiperazin-1-yl)-2-methyl-1-(((S)-tetrahydrofuran-2-yl)methyl)-1H-[1,2,4]triazolo[3,4-b]purine]: the half-maximal inhibitory concentration (IC50) at DGKα and on DGKζ was below 20 nM throughout.

Regarding `Cc1nc2c(N3C[C@H]4CC[C@@H](C3)N4C(c3ccc(C(F)(F)F)cc3)C3CC(F)(F)C3)nc3nncn3c2n1C[C@@H]1CCCO1` (stereo partly drawn) [Example 81, 4-((1R,5S)-8-((3,3-Difluorocyclobutyl)(4-(trifluoromethyl)phenyl)methyl)-3,8-diazabicyclo[3.2.1]octan-3-yl)-2-methyl-1-(((S)-tetrahydrofuran-2-yl)methyl)-1H-[1,2,4]triazolo[3,4-b]purine], the IC50 at DGKα and at DGKζ was below 20 nM in each case.

Turning to `Cc1nc2c(N3C[C@H]4CC[C@@H](C3)N4C(c3ccc(F)cc3)c3ccc(F)cc3)nc3nncn3c2n1C[C@@H]1CCCO1` [Example 82, 4-((1R,5S)-8-(Bis(4-fluorophenyl)methyl)-3,8-diazabicyclo[3.2.1]octan-3-yl)-2-methyl-1-(((S)-tetrahydrofuran-2-yl)methyl)-1H-[1,2,4]triazolo[3,4-b]purine], the IC50 at DGKα and at DGKζ was below 20 nM in each case.

On to `CC(C)[C@@H](c1ccc2cc(C(F)(F)F)ccc2n1)N1C[C@H](C)N(c2nc3nncn3c3c2ncn3C[C@@H]2CCCO2)C[C@H]1C` [Example 83, 4-((2S,5R)-2,5-Dimethyl-4-((S)-2-methyl-1-(6-(trifluoromethyl)quinolin-2-yl)propyl)piperazin-1-yl)-1-(((S)-tetrahydrofuran-2-yl)methyl)-1H-[1,2,4]triazolo[3,4-b]purine], for which the IC50 – broadly, the concentration at which inhibition is half-maximal – at DGKα was 20 to 200 nM; on DGKζ it was below 20 nM.

Regarding `CC(C)[C@H](c1ccc2cc(C(F)(F)F)ccc2n1)N1C[C@H](C)N(c2nc3nncn3c3c2ncn3C[C@@H]2CCCO2)C[C@H]1C` [Example 84, 4-((2S,5R)-2,5-dimethyl-4-((R)-2-methyl-1-(6-(trifluoromethyl)quinolin-2-yl)propyl)piperazin-1-yl)-1-(((S)-tetrahydrofuran-2-yl)methyl)-1H-[1,2,4]triazolo[3,4-b]purine], the IC50 at DGKα and on DGKζ was below 20 nM in each case.

On to `CC[C@@H](c1ccc(Cl)cc1)N1C[C@H](C)N(c2nc3nncn3c3c2nc(C)n3C[C@@H]2CCCO2)C[C@H]1C` [Example 85, 4-((2S,5R)-4-((S)-1-(4-Chlorophenyl)propyl)-2,5-dimethylpiperazin-1-yl)-2-methyl-1-(((S)-tetrahydrofuran-2-yl)methyl)-1H-[1,2,4]triazolo[3,4-b]purine], for which the IC50 on DGKα and at DGKζ was below 20 nM in each case.

In the case of `CC[C@H](c1ccc(Cl)cc1)N1C[C@H](C)N(c2nc3nncn3c3c2nc(C)n3C[C@@H]2CCCO2)C[C@H]1C` [Example 86, 4-((2S,5R)-4-((R)-1-(4-chlorophenyl)propyl)-2,5-dimethylpiperazin-1-yl)-2-methyl-1-(((S)-tetrahydrofuran-2-yl)methyl)-1H-[1,2,4]triazolo[3,4-b]purine], the IC50 on DGKα and at DGKζ was below 20 nM in each case.

For the compound `CC(c1ccc(Cl)c(F)c1)N1C[C@H](C)N(c2nc3nncn3c3c2ncn3C[C@@H]2CCCO2)C[C@H]1C` (stereo partly drawn) [Example 88, 4-((2S,5R)-4-(1-(4-Chloro-3-fluorophenyl)ethyl)-2,5-dimethylpiperazin-1-yl)-1-(((S)-tetrahydrofuran-2-yl)methyl)-1H-[1,2,4]triazolo[3,4-b]purine], the results for the IC50 at DGKα and on DGKζ were 20 to 200 nM and below 20 nM, respectively.

`CC[C@@H](c1ccc(C(F)(F)F)cc1)N1C[C@H](C)N(c2nc3nncn3c3c2nc(C)n3C[C@@H]2CCCO2)C[C@H]1C` [Example 89, 4-((2S,5R)-2,5-Dimethyl-4-((S)-1-(4-(trifluoromethyl)phenyl)propyl)piperazin-1-yl)-2-methyl-1-(((S)-tetrahydrofuran-2-yl)methyl)-1H-[1,2,4]triazolo[3,4-b]purine]: the IC50 at DGKα and on DGKζ was below 20 nM in each case.

Regarding `CC[C@H](c1ccc(C(F)(F)F)cc1)N1C[C@H](C)N(c2nc3nncn3c3c2nc(C)n3C[C@@H]2CCCO2)C[C@H]1C` [Example 90, 4-((2S,5R)-2,5-dimethyl-4-((R)-1-(4-(trifluoromethyl)phenyl)propyl)piperazin-1-yl)-2-methyl-1-(((S)-tetrahydrofuran-2-yl)methyl)-1H-[1,2,4]triazolo[3,4-b]purine], the IC50 on DGKα and on DGKζ was below 20 nM each time.
